Experimental data from US10179927B2, “Electrochemical detection of microorganisms” (priority 2014, dated 2019).

How the values were obtained:
Enterococcus faecalis = experiment: Suitability of colorimetric detection compounds for bioelectrochemical detection of Enterococcus faecalis; format: cell-based; settings: compound used for colorimetric detection of Enterococcus faecalis
Text: Bioelectroanalytical techniques are emerging as ways to enumerate and scrutinize microbial systems. But there is still need in the art for technologies specifically designed for bioelectroanalytical detection of FIB. […] The latter, in particular, makes them unsuitable in self-powering systems.

A. hydrophila = experiment: Electrochemical detection of A. hydrophila in ECs; format: cell-based, Aeromonas hydrophila; settings: both 30° C. and 37° C. (FIG. 5)
Procedure: (§1) Escherichia coli strain BL21 was selected to represent a FIB of human origin that contains the uidA and lacZ genes, i.e. a FC, whereas Aeromonas hydrophila (DSM 6173) is an environmental organism that has the lacZ gene but which is not considered a coliform. All organisms were cultured aerobically for 20 h. E. coli was grown in Luria Bertani (Lennox) medium at 37° C., and A. hydrophile at 30° C. in tryptone soy broth (TSB) in a shaking incubator.
(§2) Conical ECs with a working volume of 10 mL were used with a customized Teflon cap to accommodate a three electrode configuration along with gas fittings to maintain a moist anaerobic atmosphere. Carbon felt working electrodes (1×1×0.318 cm) (VWR, Singapore) were kept for 24 h in 1 M HCl and stored in deionized (DI) water before use. The electrodes were connected to titanium wire (0.25 mmØ, Sigma-Aldrich) using a nylon nut and bolt. […]
(§3) Following reporter supplement and inoculation with the test microorganism, the ECs were connected to a multichannel potentiostat (Biologic, France) and cyclic voltammetry (CV) and differential pulse voltammetry (DPV) were performed immediately. Data acquisition was recorded by EC-Lab software (Biologic, France). […] A detection event was calculated as 4 times the standard deviation of the baseline and detection times are expressed as the mean of triplicate analyses unless stated otherwise. […]

[1] = test system: Escherichia coli strain BL21; experiment: Chronoamperometric detection of E. coli with electrochemically active reporters in three-electrode electrochemical systems (ECs); format: cell-based; settings: for Detection time (±std dev): chronoamperometry in ECs, reporter 50 μM
Procedure: Resorufin (TCI-Europe), 2-hydroxy-1,4-naphthoquinone (2H14NQ) (TCI-Europe), 5-hydroxy-1,4-naphthoquinone (5H14NQ) (TCI-Europe) and 5,8-dihydroxy-1,4-naphthoquinone (58H14NQ) (Sigma-Aldrich) were obtained commercially and added to M9 medium in their unconjugated form to achieve a working concentration of 50 μM. Resorufin glycoconjugates (resorufin-β-d-galactopyranoside and resorufin-β-d-glucopyranoside) were obtained commercially (Sigma-Aldrich), whereas 2-hydroxy-1,4-naphthoquinone-β-d-galactopyranoside (2H14NQGal) and 2-hydroxy-1,4-naphthoquinone-β-d-glucopyranoside (2H14NQG1u) were specifically synthesized by Sussex Research Ltd. All reporters were added to a final concentration of 50 μM. Stock concentrations (1.0×10^−3 M) of 2H14NQ and 5H14NQ were prepared by first dissolving in 10 μL of 2 M NaOH and then making up to volume in Type II water (Veolia) whereas 58H14NQ (1.0×10^−3 M) was prepared in 1:1 DMSO:Type II water aliquots. Both stock solutions were stored at −20° C. until needed. Conjugated reporters were maintained as 1 mM stock solutions in Type II water and stored at 5° C.
as §1
(§4) The resulting overnight cultures were diluted in sterile modified M9 medium (Na2HPO4.7H2O (126 mM); KH2PO4 (110 mM); NH4Cl (93 mM); NaCl (42 mM); 1 mL/L vitamin stock solution; tryptone 12.5 g/L; HEPES: 6 g/L; and macro nutrients). The carbon source was either D-galacturonic acid or D-glucuronic acid (3.75 g/L) to achieve a final inoculum density in the range of 1.0×10^0, 5.0×10^0, 5.0×10^1, 5.0×10^2, 5.0×10^3, 5.0×10^4, and 5.0×10^5 CFU mL^−1 in both electrochemical system and the bioelectrochemical system.
Conical ECs with a working volume of 10 mL were used with a customized Teflon cap to accommodate a three electrode configuration along with gas fittings to maintain a moist anaerobic atmosphere. Carbon felt working electrodes (1×1×0.318 cm) (VWR, Singapore) were kept for 24 h in 1 M HCl and stored in deionized (DI) water before use. The electrodes were connected to titanium wire (0.25 mmØ, Sigma-Aldrich) using a nylon nut and bolt. A coiled titanium wire was used as counter electrode and an Ag/AgCl reference electrode (78 mm, 6 mm Outer Ø, Biologic, France) was connected using a 1 M KCl in 1.5% agar salt bridge. The assembled cell was then filled with 1 M KCl solution ending in a 4 mm glass frit (CoralPor™, Biologic, France). The entire assembly was then autoclaved (121° C. for 15 min). Nine mL of degassed modified M9 medium was added to the ECs and supplemented with a reporter to a final concentration of 5.0×10^−5 M in 10 mL working volume. The ECs were then inoculated with the targeted test organism to achieve a final working volume of 10 mL. The headspace was flushed continuously with sterile humidified N2. The ECs were operated at 30° C., 37° C. or 44.5° C. Stirring was maintained continuously with a magnetic stirrer in the dark to prevent photo-bleaching of the light sensitive mediators.
Following reporter supplement and inoculation with the test microorganism, the ECs were connected to a multichannel potentiostat (Biologic, France) and cyclic voltammetry (CV) and differential pulse voltammetry (DPV) were performed immediately. Data acquisition was recorded by EC-Lab software (Biologic, France). Chronoamperometry (CA) was applied for up to 24 h to detect redox active reporter moieties. A detection event was calculated as 4 times the standard deviation of the baseline and detection times are expressed as the mean of triplicate analyses unless stated otherwise. […]

[2] = test system: mixed culture of E. coli and A. hydrophila; experiment: Detection time of mixed culture of A. hydrophila and E. coli in ECs; format: cell-based, Escherichia coli; Aeromonas hydrophila; settings: 30° C., E. coli constant 5×10^5 CFU mL^−1
Procedure: as §1, §4
as §2, with “bolt. A coiled titanium wire was used as counter electrode and an Ag/AgCl reference electrode (78 mm, 6 mm Outer Ø, Biologic, France) was connected using a 1 M KCl in 1.5% agar salt bridge.” for “bolt.”
as §3

| SMILES | Suitability for bioelectrochemical detection (Enterococcus faecalis) | Electrochemical detection of A. hydrophila (A. hydrophila) | Detection time (±std dev) ([1]; 30° C., inoculum 5 × 10^2 CFU mL^−1) | Detection time (±std dev) ([1]; 30° C., inoculum 5 × 10^3 CFU mL^−1) | Detection time (±std dev) ([1]; 30° C., inoculum 5 × 10^4 CFU mL^−1) | Detection time (±std dev) ([1]; 30° C., inoculum 5 × 10^5 CFU mL^−1) | Detection times for E. coli ([1]; 30° C., inoculum sizes 5×10^5-5×10^2) | Detection time (±std dev) ([1]; 37° C., inoculum 5 × 10^2 CFU mL^−1) | Detection time (±std dev) ([1]; 37° C., inoculum 5 × 10^3 CFU mL^−1) | Detection time (±std dev) ([1]; 37° C., inoculum 5 × 10^4 CFU mL^−1) | Detection time (±std dev) ([1]; 37° C., inoculum 5 × 10^5 CFU mL^−1) | Detection time ([1]; inoculum size 5×10^3 CFU mL^−1, ECs) | Detection of E. coli achieved in (time) ([1]; inoculum sizes between 5×10^5 and 5×10^3 CFU mL^−1, ECs, triplicate) | Detection time, mixed culture ([2]; A. hydrophila 5×10^2 CFU mL^−1 (FIG. 5)) | Detection time, mixed culture ([2]; A. hydrophila 5×10^5 CFU mL^−1 (FIG. 5)) |
| --- | --- | --- | --- | --- | --- | --- | --- | --- | --- | --- | --- | --- | --- | --- | --- |
| Cc1cc(=O)oc2cc(OC3O[C@H](CO)[C@@H](O)[C@H](O)[C@H]3O)ccc12 (stereo partly drawn) [4-methylumbeliferone-glucoside] | not well suited for bioelectrochemical detection |  |  |  |  |  |  |  |  |  |  |  |  |  |  |
| O=c1ccc2nc3ccc(O[C@@H]4O[C@H](CO)[C@H](O)[C@H](O)[C@H]4O)cc3oc-2c1 [ResGal, resorufin-β-d-galactopyranoside] |  | could be detected electrochemically | 521(±121) minutes | 372(±82) minutes | 218(±31) minutes | 150(±56) minutes | 132 to 521 min | 734(±188) minutes | 477(±23) minutes | 309(±55) minutes | 260 (±55) minutes | ~8 h | 4 to 10 h | ~450 min | ~280 min |
